Data reported in ChEMBL document CHEMBL5050861 (2021).
Converted amounts (≈) assume the structure as drawn.

Assays:
[1] = Stability of compound in rat microsomes assessed as half-life; format: ADME, Microsome
[2] = Kinetic aqueous solubility of the compound; format: physicochemical; details: buffer; read-out: Kinetic_solubility
[3] = Inhibition of recombinant mouse GALK1 using ATP as substrate incubated for 1 hr and measured by Kinase-Glo assay
[4] = Permeability of compound by PAMPA assay; format: ADME; details: for Papp: read-out: permeability

SMILES	half-life [1] [min]	solubility kinetic [2] [µg/mL]	IC50 ([3]; read-out: IC50) [µM]	Papp [4] [×10⁻⁶ cm/s]	IC50 [3]	permeability [4]
COc1ccc2nc(NC3=NC(c4ccccc4Cl)C(C(=O)Nc4cc(C(=O)O)ccn4)=C(C)N3)oc2c1 (stereo unspecified)	> 30	> 79	21.7	< 1	–	–
CC1=C(C(=O)Nc2nnc(-c3cccnc3)s2)C(c2ccccc2Cl)N=C(Nc2nc3ccc(Cl)cc3o2)N1 (stereo unspecified)	> 30	< 1	–	< 10.3	Not Active	–
CC1=C(C(=O)Nc2cccc(-c3nnn[nH]3)c2)C(c2ccccc2Cl)N=C(Nc2nc3ccccc3o2)N1 (stereo unspecified)	> 30	47.5 (≈ 90.3 µM)	34.4	5	–	–
CC1=C(C(=O)Nc2cc(C(=O)O)ccn2)C(c2ccccc2Cl)N=C(Nc2nc3c(N)cccc3o2)N1 (stereo unspecified)	> 30	> 76	30.6	< 1	–	–
CC1=C(C(=O)Nc2cc(C(=O)O)ccn2)C(c2cccc([N+](=O)[O-])c2Cl)N=C(Nc2nc3ccc(F)cc3o2)N1 (stereo unspecified)	> 30	> 84	34.4	< 1	–	–
CC1=C(C(=O)Nc2nncs2)C(c2nn(C)cc2Br)N=C(Nc2nc3ccccc3o2)N1 (stereo unspecified)	> 30	6.4 (≈ 12.4 µM)	19.3	–	–	1044 10^-6 cm/s
CC1=C(C(=O)NCc2cccc(C(=O)O)c2)C(c2ccccc2Cl)N=C(Nc2nc3ccccc3o2)N1 (stereo unspecified)	> 30	60.6 (≈ 117 µM)	19.3	< 1.3	–	–
CC1=C(C(=O)Nc2nnc(-c3cccnc3)s2)C(c2ccccc2Cl)N=C(Nc2nc3cc(Cl)ccc3o2)N1 (stereo unspecified)	> 30	< 1	19.3	< 3.4	–	–
COc1ccc2nc(NC3=NC(c4ccccc4Cl)C(C(=O)Nc4nnc(-c5cccnc5)s4)=C(C)N3)oc2c1 (stereo unspecified)	> 30	< 1	21.7	< 4.4	–	–
CC1=C(C(=O)Nc2cc(C(=O)O)ccn2)[C@@H](c2ccc(C)cc2Cl)N=C(Nc2nc3cccc(N)c3o2)N1	> 30	> 78	21.7	< 1	–	–
CC1=C(C(=O)Nc2cc(C(=O)O)ccn2)C(c2ccc(C)cc2Cl)N=C(Nc2nc3cccnc3o2)N1 (stereo unspecified)	> 30	> 51	–	< 1	Not Active	–
CC1=C(C(=O)Nc2cc(C(=O)O)ccn2)[C@@H](c2ccccc2Cl)N=C(Nc2nc3ccccc3o2)N1	> 30	> 74	19.3	< 1	–	–
COP(=O)(OC)C1=C(C)NC(Nc2nc3ccccc3o2)=NC1c1ccccc1Cl (stereo unspecified)	5.35	12.2 (≈ 27.3 µM)	13.7	–	–	1813.86 10^-6 cm/s
CC1=C(C(=O)Nc2cc(C(=O)O)ccn2)[C@@H](c2ccccc2Cl)N=C(Nc2nc3cccc(N)c3o2)N1	> 30	> 76	34.4	< 1.3	–	–
CC1=C(C(=O)NCc2ccccc2CO)C(c2ccccc2Cl)N=C(Nc2nc3ccccc3o2)N1 (stereo unspecified)	5.09	< 1	15.3	–	–	1362.3 10^-6 cm/s
CC1=C(C(=O)Nc2ccc(N3CCNCC3)cc2)C(c2ccccc2Cl)N=C(Nc2nc3ccccc3o2)N1 (stereo unspecified)	8.63	2.42 (≈ 4.46 µM)	48.5	894	–	–
CC1=C(C(=O)Nc2cc(C(=O)O)ccn2)[C@@H](c2ccccc2Cl)N=C(Nc2nc3ccc(F)cc3o2)N1	> 30	17.3 (≈ 33.2 µM)	13.7	< 1	–	–
CC1=C(C(=O)NCCN(C)C)C(c2ccccc2Cl)N=C(Nc2nc3ccccc3o2)N1 (stereo unspecified)	> 30	> 67	15.3	> 1230	–	–
COC(=O)Cc1cccc(NC(=O)C2=C(C)NC(Nc3nc4ccccc4o3)=NC2c2ccccc2Cl)c1 (stereo unspecified)	10.3	< 1	13.7	< 17.4	–	–
CC1=C(C(=O)Nc2nncs2)C2(CCCC2)N=C(Nc2nc3ccccc3o2)N1	> 30	< 1	19.3	< 1	–	–
COc1ccc([C@H]2N=C(Nc3nc4cccc(N)c4o3)NC(C)=C2C(=O)Nc2cc(C(=O)O)ccn2)c(Cl)c1	> 30	> 81	34.4	< 1	–	–
CC1=C(C(=O)Nc2ccc(Br)cc2)C(c2ccccc2Cl)N=C(Nc2nc3ccccc3o2)N1 (stereo unspecified)	> 30	< 1	15.3	< 14.9	–	–
CC1=C(C(=O)NCc2cnn(C)c2)C(c2ccc(C)cc2Cl)N=C(Nc2nc3ccc(F)c(C(=O)O)c3o2)N1 (stereo unspecified)	> 30	26.3 (≈ 47.6 µM)	21.7	< 1	–	–
CC1=C(C(=O)Nc2nnc(-c3cccnc3)s2)C(c2ccccc2Cl)N=C(Nc2nc3cc(F)ccc3o2)N1 (stereo unspecified)	> 30	< 1	19.3	< 1.5	–	–
CC1=C(C(=O)Nc2ccc(C#N)cn2)C(c2ccccc2Cl)N=C(Nc2nc3ccc(F)cc3o2)N1 (stereo unspecified)	> 30	< 1	13.7	< 7.8	–	–

The next lines start with the values.

half-life [1] [min]	solubility kinetic [2] [µg/mL]	IC50 ([3]; read-out: IC50) [µM]	Papp [4] [×10⁻⁶ cm/s]	IC50 [3]	permeability [4]	SMILES
> 30	< 1	9.68	< 3.7	–	–	CC1=C(C(=O)Nc2nnc(-c3cccnc3)s2)C(c2ccccc2Cl)N=C(Nc2nc3ccccc3o2)N1 (stereo unspecified)
25.3	< 1	13.7	< 18.7	–	–	CC1=C(C(=O)Nc2ccc(C#N)cc2)C(c2ccccc2Cl)N=C(Nc2nc3ccccc3o2)N1 (stereo unspecified)
> 30	> 79	1.37	< 1	–	–	CC1=C(C(=O)Nc2cc(C(=O)O)ccn2)[C@H](c2ccc(C)cc2Cl)N=C(Nc2nc3ccc(F)cc3o2)N1
> 30	60 (≈ 119 µM)	6.85	< 1	–	–	CC1=C(C(=O)Nc2cccc(C(=O)O)n2)C(c2ccccc2Cl)N=C(Nc2nc3ccccc3o2)N1 (stereo unspecified)
> 30	< 1	6.11	< 4.9	–	–	CC1=C(C(=O)Nc2nncs2)C(c2ccc(Cl)cc2Cl)N=C(Nc2nc3ccccc3o2)N1 (stereo unspecified)
> 30	2.4 (≈ 4 µM)	3.85	< 1.7	–	–	CC1=C(C(=O)Nc2cc(C(=O)O)ccn2)C(c2ccc(Br)cc2Cl)N=C(Nc2nc3ccc(F)cc3o2)N1 (stereo unspecified)
> 30	> 52	4.32	< 1.8	–	–	CC1=C(C(=O)Nc2cc(C(=O)O)ccn2)C(c2ccc(C)cc2Cl)N=C(Nc2nc3c(o2)CCCC3)N1 (stereo unspecified)
> 30	< 1	10.9	< 1.5	–	–	CC1=C(C(=O)Nc2nnc(-c3cccnc3)s2)C(c2ccccc2Cl)N=C(Nc2nc3cc(C)ccc3o2)N1 (stereo unspecified)
> 30	58.2 (≈ 118 µM)	4.85	< 1	–	–	O=C(O)CNC(=O)C1CC(=O)C2=C(C1)NC(Nc1nc3ccccc3o1)=NC2c1ccccc1Cl (stereo unspecified)
> 30	> 51	6.85	< 1	–	–	CC1=C(C(=O)Nc2cc(C(=O)O)ccn2)C(c2ccc(C)cc2Cl)N=C(Nc2nc3cnccc3o2)N1 (stereo unspecified)
> 30	11.3 (≈ 20 µM)	3.85	< 1	–	–	CCOc1ccc(C2N=C(Nc3nc4ccc(F)cc4o3)NC(C)=C2C(=O)Nc2cc(C(=O)O)ccn2)c(Cl)c1 (stereo unspecified)
> 30	> 74	3.43	< 1	–	–	CC1=C(C(=O)Nc2cc(C(=O)O)ccn2)[C@H](c2ccccc2Cl)N=C(Nc2nc3ccccc3o2)N1
> 30	47 (≈ 91.1 µM)	10.9	< 1	–	–	CC1=C(C(=O)NCc2ccc(C(=O)O)cc2)C(c2ccccc2Cl)N=C(Nc2nc3ccccc3o2)N1 (stereo unspecified)
> 30	19.4 (≈ 32.9 µM)	10.9	< 1	–	–	CC1=C(C(=O)Nc2cc(C(=O)O)ccn2)C(c2ccc(C(F)(F)F)cc2Cl)N=C(Nc2nc3ccc(F)cc3o2)N1 (stereo unspecified)
> 30	61.8 (≈ 122 µM)	12.2	< 9.8	–	–	CN(C)CCNC(=O)C1CC(=O)C2=C(C1)NC(Nc1nc3ccccc3o1)=NC2c1ccccc1Cl (stereo unspecified)
3.16	< 1	10.7	< 2.7	–	–	CCOC(=O)c1nnc(NC(=O)C2=C(C)NC(Nc3nc4ccccc4o3)=NC2c2ccccc2Cl)s1 (stereo unspecified)
> 30	1.23 (≈ 2.37 µM)	12.2	< 5	–	–	O=C1CC(C(=O)Nc2nncs2)CC2=C1C(c1ccccc1Cl)N=C(Nc1nc3ccccc3o1)N2 (stereo unspecified)
> 30	< 1	6.11	< 14.4	–	–	CC1=C(C(=O)Nc2nncs2)C(c2ccc(C)cc2Cl)N=C(Nc2nc3ccccc3o2)N1 (stereo unspecified)
9.22	< 1	6.85	< 21.9	–	–	CCn1cc(CNC(=O)C2=C(C)NC(Nc3nc4ccc(F)cc4o3)=NC2c2ccc(C)cc2Cl)cn1 (stereo unspecified)
> 30	> 77	3.43	< 1	–	–	CC1=C(C(=O)Nc2ccc(C(=O)O)cn2)C(c2ccccc2Cl)N=C(Nc2nc3ccc(F)cc3o2)N1 (stereo unspecified)
16.4	< 1	12.2	< 11.8	–	–	CC1=C(C(=O)Nc2ccc(-n3cccn3)cc2)C(c2ccccc2Cl)N=C(Nc2nc3ccccc3o2)N1 (stereo unspecified)
> 30	> 53	1.41	< 1	–	–	CC1=C(C(=O)Nc2cc(C(=O)O)ccn2)[C@H](c2ccc(C)cc2Cl)N=C(Nc2nc3cccc(N)c3o2)N1
> 30	24.6 (≈ 48.9 µM)	9.68	< 1	–	–	CC1=C(C(=O)Nc2ccc(C(=O)O)nc2)C(c2ccccc2Cl)N=C(Nc2nc3ccccc3o2)N1 (stereo unspecified)
> 30	55.6 (≈ 107 µM)	1.72	< 1	–	–	CC1=C(C(=O)Nc2cc(C(=O)O)ccn2)[C@H](c2ccccc2Cl)N=C(Nc2nc3ccc(F)cc3o2)N1
